Laboratory results from US6995167B2 (priority 1999, dated 2006).

Molecular target: α7 nAChR subtype (Rattus norvegicus, UniProt Q05941)
Assay type: binding
Settings: read-out: KD of radioligand

α7 nAChR subtype, sequence (Q05941 23-502 limits assumed): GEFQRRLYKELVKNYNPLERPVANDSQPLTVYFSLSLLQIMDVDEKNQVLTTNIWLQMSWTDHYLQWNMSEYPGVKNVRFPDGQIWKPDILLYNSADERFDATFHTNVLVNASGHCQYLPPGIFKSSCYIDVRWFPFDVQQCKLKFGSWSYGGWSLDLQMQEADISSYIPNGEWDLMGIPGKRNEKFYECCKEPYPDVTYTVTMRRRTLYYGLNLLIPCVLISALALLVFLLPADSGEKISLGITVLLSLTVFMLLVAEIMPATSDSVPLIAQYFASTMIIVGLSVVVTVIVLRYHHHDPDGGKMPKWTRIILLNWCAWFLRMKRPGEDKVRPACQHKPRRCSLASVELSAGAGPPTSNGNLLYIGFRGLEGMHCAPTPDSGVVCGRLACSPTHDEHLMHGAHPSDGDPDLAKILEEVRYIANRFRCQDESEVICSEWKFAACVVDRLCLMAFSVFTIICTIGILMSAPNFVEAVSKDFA

**Q.** For ^125I-α-Bungarotoxin [^125I-α-BTX], which Kd is on record?
**A.** 1.67 nM
